Experiments:
[1] = molecular target: Carbonic anhydrase 2 (Homo sapiens) (UniProt P00918); assay: Inhibition of Carbonic Anhydrase II at compound concentration of 10.0 uM in the Eurofins-Panlabs enzyme assay (Eurofins_assay_112020); design: substrate with concentration; settings: Compound concentration 10.0 uM
[2] = molecular target: AP2-associated protein kinase 1 (Homo sapiens) (UniProt Q2M2I8); assay: AAK1(h) Millipore kinase panel; settings: Compound concentration 1.0 uM
[3] = molecular target: Serine/threonine-protein kinase A-Raf (Homo sapiens) (UniProt P10398); assay: A_Raf(h) Millipore kinase panel; settings: Compound concentration 1.0 uM
[4] = molecular target: BMP-2-inducible protein kinase (Homo sapiens) (UniProt Q9NSY1); assay: BIKe(h) Millipore kinase panel; settings: Compound concentration 1.0 uM
[5] = molecular target: Cytoplasmic tyrosine-protein kinase BMX (Homo sapiens) (UniProt P51813); assay: Bmx(h) Millipore kinase panel; settings: Compound concentration 1.0 uM
[6] = molecular target: Serine/threonine-protein kinase B-raf (Homo sapiens) (UniProt P15056); assay: BRaf(h) Millipore kinase panel; settings: Compound concentration 1.0 uM
[7] = molecular target: Tyrosine-protein kinase BTK (Homo sapiens) (UniProt Q06187); assay: BTK(h) Millipore kinase panel; settings: Compound concentration 1.0 uM
[8] = molecular target: Calcium/calmodulin-dependent protein kinase kinase 1 (Homo sapiens) (UniProt Q8N5S9); assay: CaMKK1(h) Millipore kinase panel; settings: Compound concentration 1.0 uM
[9] = molecular target: Cyclin-dependent kinase-like 4 (Homo sapiens) (UniProt Q5MAI5); assay: CDKL4(h) Millipore kinase panel; settings: Compound concentration 1.0 uM
[10] = molecular target: Casein kinase II subunit alpha (Homo sapiens) (UniProt P68400); assay: CK2alpha1(h) Millipore kinase panel; settings: Compound concentration 1.0 uM
[11] = molecular target: Myotonin-protein kinase (Homo sapiens) (UniProt Q09013); assay: DMPK(h) Millipore kinase panel; settings: Compound concentration 1.0 uM
[12] = molecular target: G protein-coupled receptor kinase 3 (Homo sapiens) (UniProt P35626); assay: GRK3(h) Millipore kinase panel; settings: Compound concentration 1.0 uM
Chain of G protein-coupled receptor kinase 3 (Homo sapiens) (P35626 whole entry): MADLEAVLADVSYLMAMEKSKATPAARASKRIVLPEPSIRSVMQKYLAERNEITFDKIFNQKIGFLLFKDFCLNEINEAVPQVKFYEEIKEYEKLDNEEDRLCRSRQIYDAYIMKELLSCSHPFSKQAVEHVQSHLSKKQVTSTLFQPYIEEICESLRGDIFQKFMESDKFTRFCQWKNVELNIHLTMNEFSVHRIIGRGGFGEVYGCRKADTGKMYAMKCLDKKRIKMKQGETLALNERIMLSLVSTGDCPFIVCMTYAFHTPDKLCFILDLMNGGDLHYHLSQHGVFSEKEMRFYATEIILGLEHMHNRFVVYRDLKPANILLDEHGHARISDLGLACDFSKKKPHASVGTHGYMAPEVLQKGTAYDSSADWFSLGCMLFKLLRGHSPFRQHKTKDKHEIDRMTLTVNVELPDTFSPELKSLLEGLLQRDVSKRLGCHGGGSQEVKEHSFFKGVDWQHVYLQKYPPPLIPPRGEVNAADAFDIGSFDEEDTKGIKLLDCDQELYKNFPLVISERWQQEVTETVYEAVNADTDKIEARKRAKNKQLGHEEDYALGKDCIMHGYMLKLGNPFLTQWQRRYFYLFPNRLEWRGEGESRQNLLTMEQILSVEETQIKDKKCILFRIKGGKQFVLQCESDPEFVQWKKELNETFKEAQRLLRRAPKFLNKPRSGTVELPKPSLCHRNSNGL

[13] = molecular target: Rhodopsin kinase GRK7 (Homo sapiens) (UniProt Q8WTQ7); assay: GRK7(h) Millipore kinase panel; settings: Compound concentration 1.0 uM
[14] = molecular target: Homeodomain-interacting protein kinase 3 (Homo sapiens) (UniProt Q9H422); assay: HIPK3(h) Millipore kinase panel; settings: Compound concentration 1.0 uM
[15] = molecular target: Mitogen-activated protein kinase 9 (Homo sapiens) (UniProt P45984); assay: JNK2alpha2(h) Millipore kinase panel; settings: Compound concentration 1.0 uM
[16] = molecular target: Mitogen-activated protein kinase kinase kinase kinase 5 (Homo sapiens) (UniProt Q9Y4K4); assay: MAP4K5(h) Millipore kinase panel; settings: Compound concentration 1.0 uM
[17] = molecular target: Tyrosine-protein kinase Mer (Homo sapiens) (UniProt Q12866); assay: Mer(h) Millipore kinase panel; settings: Compound concentration 1.0 uM
[18] = molecular target: Muscle, skeletal receptor tyrosine-protein kinase (Homo sapiens) (UniProt O15146); assay: MuSK(h) Millipore kinase panel; settings: Compound concentration 1.0 uM
Chain of Muscle, skeletal receptor tyrosine-protein kinase (Homo sapiens) (O15146 whole entry): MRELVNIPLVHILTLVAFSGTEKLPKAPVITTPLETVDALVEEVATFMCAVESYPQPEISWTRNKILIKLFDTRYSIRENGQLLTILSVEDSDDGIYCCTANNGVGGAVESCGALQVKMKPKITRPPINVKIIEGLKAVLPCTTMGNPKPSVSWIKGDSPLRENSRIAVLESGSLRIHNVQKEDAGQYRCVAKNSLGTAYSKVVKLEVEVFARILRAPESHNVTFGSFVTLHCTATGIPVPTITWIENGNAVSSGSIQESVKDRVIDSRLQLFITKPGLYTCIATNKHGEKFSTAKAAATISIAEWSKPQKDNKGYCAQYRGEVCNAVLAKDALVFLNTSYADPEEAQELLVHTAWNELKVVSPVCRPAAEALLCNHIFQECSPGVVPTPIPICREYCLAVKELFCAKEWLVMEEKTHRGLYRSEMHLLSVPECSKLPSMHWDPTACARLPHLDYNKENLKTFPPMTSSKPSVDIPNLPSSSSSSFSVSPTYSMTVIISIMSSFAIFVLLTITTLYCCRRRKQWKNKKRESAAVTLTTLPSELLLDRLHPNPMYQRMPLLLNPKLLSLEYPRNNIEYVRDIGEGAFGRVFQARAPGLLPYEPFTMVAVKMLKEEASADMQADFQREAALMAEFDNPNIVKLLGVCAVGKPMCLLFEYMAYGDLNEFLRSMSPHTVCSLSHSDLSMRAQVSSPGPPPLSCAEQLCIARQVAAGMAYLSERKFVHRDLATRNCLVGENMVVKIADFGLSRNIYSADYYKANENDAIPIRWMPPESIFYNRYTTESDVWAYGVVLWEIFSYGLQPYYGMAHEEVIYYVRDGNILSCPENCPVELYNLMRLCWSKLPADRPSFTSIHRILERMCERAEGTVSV

[19] = molecular target: Myosin-IIIb (Homo sapiens) (UniProt Q8WXR4); assay: MYO3B(h) Millipore kinase panel; settings: Compound concentration 1.0 uM
Chain of Myosin-IIIb (Homo sapiens) (Q8WXR4 whole entry): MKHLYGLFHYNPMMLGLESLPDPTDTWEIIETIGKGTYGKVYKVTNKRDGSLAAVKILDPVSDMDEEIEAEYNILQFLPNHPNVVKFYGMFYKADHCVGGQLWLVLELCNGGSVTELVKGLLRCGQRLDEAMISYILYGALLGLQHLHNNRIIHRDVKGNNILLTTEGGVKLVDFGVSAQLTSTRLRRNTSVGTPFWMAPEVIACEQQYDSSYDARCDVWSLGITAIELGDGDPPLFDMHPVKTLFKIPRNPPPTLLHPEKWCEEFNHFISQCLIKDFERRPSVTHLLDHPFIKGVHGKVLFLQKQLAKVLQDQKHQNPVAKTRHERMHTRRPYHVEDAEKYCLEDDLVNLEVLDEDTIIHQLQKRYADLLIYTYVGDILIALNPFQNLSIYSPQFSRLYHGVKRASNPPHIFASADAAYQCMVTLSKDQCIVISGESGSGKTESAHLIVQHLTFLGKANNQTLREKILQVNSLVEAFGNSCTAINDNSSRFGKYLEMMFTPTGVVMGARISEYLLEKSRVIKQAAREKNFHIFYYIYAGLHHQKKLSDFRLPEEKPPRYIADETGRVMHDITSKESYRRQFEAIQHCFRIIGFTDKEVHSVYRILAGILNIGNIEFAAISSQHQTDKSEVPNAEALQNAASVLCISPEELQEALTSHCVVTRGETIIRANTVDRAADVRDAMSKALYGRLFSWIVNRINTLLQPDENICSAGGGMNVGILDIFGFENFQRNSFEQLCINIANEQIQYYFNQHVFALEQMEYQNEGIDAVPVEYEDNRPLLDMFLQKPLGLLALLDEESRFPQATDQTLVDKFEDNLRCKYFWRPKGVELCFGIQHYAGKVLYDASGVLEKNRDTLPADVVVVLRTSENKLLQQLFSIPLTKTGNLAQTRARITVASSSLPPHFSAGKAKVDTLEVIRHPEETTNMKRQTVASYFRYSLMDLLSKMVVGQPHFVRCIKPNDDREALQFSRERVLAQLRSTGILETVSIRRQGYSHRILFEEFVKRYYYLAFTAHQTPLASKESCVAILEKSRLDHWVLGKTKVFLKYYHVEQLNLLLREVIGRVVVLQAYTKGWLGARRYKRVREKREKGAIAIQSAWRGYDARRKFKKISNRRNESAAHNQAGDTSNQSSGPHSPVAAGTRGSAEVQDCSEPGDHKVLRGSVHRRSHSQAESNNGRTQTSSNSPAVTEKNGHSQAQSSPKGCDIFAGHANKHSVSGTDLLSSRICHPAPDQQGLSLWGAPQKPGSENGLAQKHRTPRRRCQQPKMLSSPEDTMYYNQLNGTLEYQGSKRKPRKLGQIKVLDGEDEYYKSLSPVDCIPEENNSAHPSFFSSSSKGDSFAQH

[20] = molecular target: Serine/threonine-protein kinase Nek2 (Homo sapiens) (UniProt P51955); assay: NEK2(h) Millipore kinase panel; settings: Compound concentration 1.0 uM
[21] = molecular target: Ribosomal protein S6 kinase beta-1 (Homo sapiens) (UniProt P23443); assay: p70S6K(h) Millipore kinase panel; settings: Compound concentration 1.0 uM
[22] = molecular target: Serine/threonine-protein kinase PAK 2 (Homo sapiens) (UniProt Q13177); assay: PAK2(h) Millipore kinase panel; settings: Compound concentration 1.0 uM
[23] = molecular target: Serine/threonine-protein kinase MARK2 (Homo sapiens) (UniProt Q7KZI7); assay: PAR-1Balpha(h) Millipore kinase panel; settings: Compound concentration 1.0 uM
[24] = molecular target: Protein kinase C beta type (Homo sapiens) (UniProt P05771); assay: PKCbetaI(h) Millipore kinase panel; settings: Compound concentration 1.0 uM
[25] = molecular target: Serine/threonine-protein kinase D1 (Homo sapiens) (UniProt Q15139); assay: PKCmu(h) Millipore kinase panel; settings: Compound concentration 1.0 uM
[26] = molecular target: cAMP-dependent protein kinase catalytic subunit PRKX (Homo sapiens) (UniProt P51817); assay: PrKX(h) Millipore kinase panel; settings: Compound concentration 1.0 uM
[27] = molecular target: Ribosomal protein S6 kinase alpha-1 (Homo sapiens) (UniProt Q15418); assay: Rsk1(h) Millipore kinase panel; settings: Compound concentration 1.0 uM
[28] = molecular target: Mitogen-activated protein kinase 13 (Homo sapiens) (UniProt O15264); assay: SAPK4(h) Millipore kinase panel; settings: Compound concentration 1.0 uM
[29] = molecular target: SNF-related serine/threonine-protein kinase (Homo sapiens) (UniProt Q9NRH2); assay: SNRK(h) Millipore kinase panel; settings: Compound concentration 1.0 uM
[30] = molecular target: STE20/SPS1-related proline-alanine-rich protein kinase (Homo sapiens) (UniProt Q9UEW8); assay: STK39(h) Millipore kinase panel; settings: Compound concentration 1.0 uM
[31] = molecular target: Tyrosine-protein kinase Tec (Homo sapiens) (UniProt P42680); assay: Tec(h) activated Millipore kinase panel; settings: Compound concentration 1.0 uM
Chain of Tyrosine-protein kinase Tec (Homo sapiens) (P42680 whole entry): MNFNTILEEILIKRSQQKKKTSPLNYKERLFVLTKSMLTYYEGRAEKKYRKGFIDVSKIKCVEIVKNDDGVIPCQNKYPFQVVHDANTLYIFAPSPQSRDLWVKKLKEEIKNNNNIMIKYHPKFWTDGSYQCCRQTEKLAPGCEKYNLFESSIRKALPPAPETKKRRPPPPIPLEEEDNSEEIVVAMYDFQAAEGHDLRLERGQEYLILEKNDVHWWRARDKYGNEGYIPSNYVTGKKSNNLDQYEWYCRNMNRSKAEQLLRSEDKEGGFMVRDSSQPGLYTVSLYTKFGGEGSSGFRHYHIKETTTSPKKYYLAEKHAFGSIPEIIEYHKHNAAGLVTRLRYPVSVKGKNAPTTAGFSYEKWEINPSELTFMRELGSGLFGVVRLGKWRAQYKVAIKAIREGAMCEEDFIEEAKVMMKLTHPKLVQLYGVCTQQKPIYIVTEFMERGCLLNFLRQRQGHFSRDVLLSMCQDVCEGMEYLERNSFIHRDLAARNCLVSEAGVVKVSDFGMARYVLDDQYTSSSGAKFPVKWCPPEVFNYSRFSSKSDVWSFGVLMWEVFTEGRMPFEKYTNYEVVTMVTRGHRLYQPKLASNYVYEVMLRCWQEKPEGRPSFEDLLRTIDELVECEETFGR

[32] = molecular target: Testis-specific serine/threonine-protein kinase 2 (Homo sapiens) (UniProt Q96PF2); assay: TSSK2(h) Millipore kinase panel; settings: Compound concentration 1.0 uM
Chain of Testis-specific serine/threonine-protein kinase 2 (Homo sapiens) (Q96PF2 whole entry): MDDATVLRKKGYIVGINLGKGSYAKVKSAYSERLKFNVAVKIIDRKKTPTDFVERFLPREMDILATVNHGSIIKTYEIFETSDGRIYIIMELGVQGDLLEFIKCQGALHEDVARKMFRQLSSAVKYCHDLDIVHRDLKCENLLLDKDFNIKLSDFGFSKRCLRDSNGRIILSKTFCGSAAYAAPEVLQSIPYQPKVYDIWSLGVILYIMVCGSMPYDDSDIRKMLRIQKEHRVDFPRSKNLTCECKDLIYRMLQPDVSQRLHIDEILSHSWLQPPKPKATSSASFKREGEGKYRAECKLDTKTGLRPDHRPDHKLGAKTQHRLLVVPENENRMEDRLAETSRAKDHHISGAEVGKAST

[33] = molecular target: Tau-tubulin kinase 2 (Homo sapiens) (UniProt Q6IQ55); assay: TTBK2(h) Millipore kinase panel; settings: Compound concentration 1.0 uM
[34] = molecular target: Wee1-like protein kinase 2 (Homo sapiens) (UniProt P0C1S8); assay: Wee1B(h) Millipore kinase panel; settings: Compound concentration 1.0 uM
[35] = molecular target: Mitogen-activated protein kinase kinase kinase 20 (Homo sapiens) (UniProt Q9NYL2); assay: ZAK(h) Millipore kinase panel; settings: Compound concentration 1.0 uM
[36] = molecular target: Cyclin-dependent kinase 1/cyclin B (Homo sapiens) (UniProt P06493+P14635+Q8WWL7+O95067); assay: CDK1/cyclinB(h) Millipore kinase panel; format: protein-complex assay; settings: Compound concentration 1.0 uM
[37] = molecular target: Mitogen-activated protein kinase 1 (Homo sapiens) (UniProt P28482); assay: MAPK2(h) Millipore kinase panel; settings: Compound concentration 1.0 uM
[38] = molecular target: Polyunsaturated fatty acid lipoxygenase ALOX15 (Homo sapiens) (UniProt P16050); assay: Inhibition of Lipoxygenase 15-LO at compound concentration of 10.0 uM in the Eurofins-Panlabs enzyme assay (Eurofins_assay_199017); settings: Compound concentration 10.0 uM
[39] = molecular target: Sodium-dependent dopamine transporter (Homo sapiens) (UniProt Q01959); settings: Compound concentration 10.0 uM
[40] = molecular target: Glutamate NMDA receptor (Rattus norvegicus) (UniProt P35439+Q00959+Q00960+Q00961+Q62645+Q8VHN2+Q9R1M7); settings: Compound concentration 10.0 uM
[41] = molecular target: Acetylcholinesterase (Homo sapiens) (UniProt P22303); settings: Compound concentration 10.0 uM
[42] = molecular target: Phosphorylase b kinase gamma catalytic chain, testis/liver isoform (Homo sapiens) (UniProt P15735); assay: PhKgamma2(h) Millipore kinase panel; settings: Compound concentration 1.0 uM

Measured: inhibition

Chain of AP2-associated protein kinase 1 (Homo sapiens) (Q2M2I8 whole entry, looked up): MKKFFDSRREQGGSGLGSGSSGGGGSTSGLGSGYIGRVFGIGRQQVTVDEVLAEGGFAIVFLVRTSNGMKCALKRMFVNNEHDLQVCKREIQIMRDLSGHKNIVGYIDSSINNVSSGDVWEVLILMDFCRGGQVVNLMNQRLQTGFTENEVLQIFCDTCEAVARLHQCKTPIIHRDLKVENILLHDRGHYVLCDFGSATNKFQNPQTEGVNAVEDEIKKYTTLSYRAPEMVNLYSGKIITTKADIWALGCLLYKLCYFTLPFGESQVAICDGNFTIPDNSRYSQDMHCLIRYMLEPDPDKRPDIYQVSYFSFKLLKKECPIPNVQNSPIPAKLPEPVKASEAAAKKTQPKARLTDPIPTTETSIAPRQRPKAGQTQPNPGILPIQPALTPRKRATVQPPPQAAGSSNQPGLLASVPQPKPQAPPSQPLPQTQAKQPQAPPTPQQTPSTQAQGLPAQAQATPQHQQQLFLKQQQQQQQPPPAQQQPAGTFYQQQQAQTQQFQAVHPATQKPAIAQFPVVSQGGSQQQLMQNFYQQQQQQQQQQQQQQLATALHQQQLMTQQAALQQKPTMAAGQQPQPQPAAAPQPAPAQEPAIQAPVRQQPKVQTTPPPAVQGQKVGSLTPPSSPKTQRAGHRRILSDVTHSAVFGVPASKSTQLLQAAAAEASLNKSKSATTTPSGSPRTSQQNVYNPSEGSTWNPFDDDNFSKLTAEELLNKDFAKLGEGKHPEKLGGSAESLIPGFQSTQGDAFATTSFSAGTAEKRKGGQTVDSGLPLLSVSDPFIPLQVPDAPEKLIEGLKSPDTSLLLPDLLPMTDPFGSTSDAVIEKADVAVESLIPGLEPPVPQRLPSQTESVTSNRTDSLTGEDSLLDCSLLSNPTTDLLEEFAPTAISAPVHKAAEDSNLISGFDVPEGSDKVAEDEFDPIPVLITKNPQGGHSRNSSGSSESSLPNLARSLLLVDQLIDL

CC[C@@H](Nc1c(C#N)c(-c2ccc(-c3cccc(C)c3F)cc2)nc2cnccc12)C(=O)O [BAY-091]
inactive: [1] -6% | [2] 7.44% | [3] 2.41% | [4] 5.17% | [5] 3.69% | [6] 23.5% | [7] 12.8% | [8] 5.03% | [9] 12.6% | [10] 3.34% | [11] 15.1% | [12] 8.23% | [13] 2.75% | [14] 4.32% | [15] -1.41% | [16] 13.3% | [17] 10.2% | [18] 5.1% | [19] 18.1% | [20] 15.9% | [21] 4.3% | [22] 24.9% | [23] 6.75% | [24] 16.5% | [25] 12.7% | [26] 2.66% | [27] -6.03% | [28] -3.58% | [29] 10.3% | [30] 5.6% | [31] 4.62% | [32] -1.97% | [33] 1.17% | [34] 9.64% | [35] -4.94% | [36] 8.82% | [37] 7.74% | [38] 20% | [39] 29.5% | [40] -1% | [41] 27% | [42] -0.34%

From ChEMBL document CHEMBL4800729 (2021)
